Test results from PubChem BioAssay AID1259407 (Chemical Carcinogenesis Research Information System (CCRIS), 2018).
Activity calls are given as the source filed them. No rule for the calls is given here.

Tested on: CCRIS mutagenicity, Ames/micronucleus/aberration tests
Test: CCRIS mutagenicity studies
Details: Test System: AMES SALMONELLA TYPHIMURIUM

SMILES | mutagenic call (Strain/Indicator: TA100, Metabolic Activation: GUINEA PIG, LIVER, S-9, KANECLOR 500, Method: STANDARD PLATE) | mutagenic call (Strain/Indicator: TA100, Metabolic Activation: NONE, Method: STANDARD PLATE) | mutagenic call (Strain/Indicator: TA100, Metabolic Activation: RAT, LIVER, S-9, KANECLOR 500, Method: STANDARD PLATE) | mutagenic call (Strain/Indicator: TA98(1,8-DNP6), Metabolic Activation: NONE, Method: STANDARD PLATE) | mutagenic call (Strain/Indicator: TA98(1,8-DNP6), Metabolic Activation: RAT, LIVER, S-9, 3-METHYLCHOLANTHRENE, Method: STANDARD PLATE) | mutagenic call (Strain/Indicator: TA98(NR), Metabolic Activation: NONE, Method: STANDARD PLATE) | mutagenic call (Strain/Indicator: TA98(NR), Metabolic Activation: RAT, LIVER, S-9, 3-METHYLCHOLANTHRENE, Method: STANDARD PLATE) | mutagenic call (Strain/Indicator: TA98, Metabolic Activation: NONE, Method: STANDARD PLATE) | mutagenic call (Strain/Indicator: TA98, Metabolic Activation: RAT, LIVER, S-9, 3-METHYLCHOLANTHRENE, Method: STANDARD PLATE) | mutagenic call (Strain/Indicator: TA100(1,8-DNP6), Metabolic Activation: NONE, Method: PREINCUBATION) | mutagenic call (Strain/Indicator: TA100(1,8-DNP6), Metabolic Activation: RAT, LIVER, S-9, AROCLOR 1254, Method: PREINCUBATION) | mutagenic call (Strain/Indicator: TA100(NR), Metabolic Activation: NONE, Method: PREINCUBATION) | mutagenic call (Strain/Indicator: TA100(NR), Metabolic Activation: RAT, LIVER, S-9, AROCLOR 1254, Method: PREINCUBATION) | mutagenic call (Strain/Indicator: TA100, Metabolic Activation: NONE, Method: PREINCUBATION) | mutagenic call (Strain/Indicator: TA100, Metabolic Activation: RAT, LIVER, S-9, AROCLOR 1254, Method: PREINCUBATION)
CC(=O)N(O)c1ccc(Oc2ccccc2)cc1 | active; positive | inactive; negative | active; positive | – | – | – | – | – | – | – | – | – | – | – | –
O=C/C=C/c1ccc([N+](=O)[O-])o1 | – | – | – | active; positive | active; positive | active; positive | active; positive | active; positive | active; positive | active; positive | active; positive | active; positive | active; positive | active; positive | active; positive
